Like-named read-outs stand apart in the source and are kept apart here.
How the values were obtained:
creatine kinase = test: Creatine kinase (CK) test procedure in Ad5-wt-ERα infected HAECT-1 cells; type: cell-based, human
IL-6 = IL-6 test procedure (IL-6 ELISA of media) in Ad5-wt-ERα infected HAECT-1 cells; type: cell-based, human; conditions: for Emax: read-out: Interleukin-6 Efficacy (%); for IC50: read-out: Interleukin-6 IC50
Protocol: After four hours, cells were washed with EBM-BSA and incubated overnight in the same medium. Following overnight incubation, cells were washed with EBM-BSA and infected for 2 hours with 6 mL of a 1:10 dilution of Ad5-3x(NFκB).Luc virus (Adenovirus luciferase expression vector driven by 3 repeats of the MHC NFκb site 5′ to the thymidine kinase promoter) in EBM-BSA. After two hours, cells were washed and incubated at 34° C. for 1 hour. […] Control (no ER infection) cells were processed as above without Ad5-wt-hERα virus infection.
ERα infected HAECT-1 cells or control cells were thawed, diluted 42× in warm EBM-BSA, plated into 96-well plates at 0.1 mL/well and incubated for 4 hours at 34° C. Test compounds were added to the cells as 2× stocks in EBM-BSA containing 2 ng/mL IL-1β (R&D Systems) and the 96-well plates were returned to the incubator (34° C.). After 15-20 hours, 100 μL aliquots of media were removed from the cells and assayed for IL-6 content using a BioSource human IL-6 ELISA Kit. Cells were subsequently washed with 300 μL of Dulbecco's phosphate buffered saline and lysed in 50 μL of Cell Culture Lysis Reagent (Promega). Luciferase was determined on a Wallac Victor^2 Luminometer (Gaithersburg, Md.) using 10 μL of lysate and mixing with 100 μL of Promega Luciferase Assay reagent. Creatine kinase was determined from the rate of increase in A340 following addition of 100 μL of CK assay reagent (Sigma, cat. No 47-10) to the remainder of the cell lysate.
For IC50 and EC50 calculations, mean IL-6, luciferase or CK values versus log10 of the compound concentration were fitted to a four parameter logistic equation. The IC50/EC50 value, ‘Hill slope’, upper and lower limits of the curve were iteratively estimated.

ER/NF-κB = ER/NF-κB luciferase reporter in Ad5-wt-ERα infected HAECT-1 cells; type: cell-based, human; conditions: Homo sapiens, HAECT1, IL-1β; for Emax: read-out: ER/NFκB Efficacy (%)*; for IC50: read-out: ER/NFκB IC50
[1] = Homo sapiens, HAECT1, Ad5-wt-ERα infected HAECT-1 cells, read-out: Creatin Kinase EC50
[2] = Homo sapiens, HAECT1, Ad5-wt-ERα infected HAECT-1 cells, read-out: Creatin Kinase Efficacy (%)
[3] = Ad5-wt-ERα infected HAECT-1 cells

Row | SMILES | EC50 (creatine kinase; [1]) | IC50 (IL-6; Homo sapiens, HAECT1, IL-1β) | melting point | IC50 (ER/NF-κB) | EC50 (creatine kinase; Homo sapiens, HAECT1, read-out: Creatin Kinase EC50) | Emax (creatine kinase; [2]) | Emax (IL-6; Homo sapiens, HAECT1, IL-1β) | Emax (ER/NF-κB) | Emax at 10 µM (creatine kinase; Homo sapiens, HAECT1, @10 μM, Ad5-wt-ERα infected HAECT-1 cells, read-out: Creatin Kinase Efficacy (%)) | Creatin Kinase Efficacy (%) (creatine kinase; [3]) | EC50 (creatine kinase; Ad5-wt-ERα infected HAECT-1 cells, read-out: Creatin Kinase EC50) | Interleukin-6 Efficacy (%) (IL-6; IL-1β) | IC50 (IL-6; IL-1β)
1 | C[C@@H]1c2ccccc2-c2ccc(Cl)cc2N1S(=O)(=O)c1cccc(O)c1 [Example 119, 3-{[(6R)-3-Chloro-6-methylphenanthridin-5(6H)-yl]sulfonyl}phenol] |  | 18 nM | 220.9 to 223 °C |  |  | 21% | 35% |  |  |  |  |  | 
2 | C[C@H]1c2ccccc2-c2ccc(Cl)cc2N1S(=O)(=O)c1ccc(O)cc1 [Example 123, 4-{[(6S)-3-Chloro-6-methylphenanthridin-5(6H)-yl]sulfonyl}phenol] |  | 7 nM | 213.5 to 220 °C |  |  | 2% | 154% |  |  |  |  |  | 
3 | C[C@@H]1c2cc(F)ccc2-c2ccccc2N1S(=O)(=O)c1ccc(O)cc1 [Example 34, 4-{[(R)-8-Fluoro-6-methylphenanthridin-5(6H)-yl]sulfonyl}phenol] |  |  | 193 °C | 2840 nM |  |  | 35% | 89% | < 35% |  |  |  | 
4 | CC1c2ccc(F)cc2-c2ccc(F)cc2N1S(=O)(=O)c1cccc(O)c1 (stereo not shown) [Example 115, 3-[(3,9-Difluoro-6-methylphenanthridin-5(6H)-yl)sulfonyl]phenol] | 102 nM | 81 nM | 167.2 to 173 °C |  |  | 16% | 102% |  |  |  |  |  | 
5 | C[C@]12CC[C@@H]3c4ccc(O)cc4CC[C@H]3[C@@H]1CC[C@@H]2O [Example E2, 17β-estradiol, reference compound] |  | ~1 nM |  | ~1 nM | 5.8 nM |  |  |  |  |  |  |  | 
6 | CC1c2ccccc2-c2cc(F)ccc2N1S(=O)(=O)c1ccc(O)cc1 (stereo not shown) [Example 112, 4-[(2-Fluoro-6-methylphenanthridin-5(6H)-yl)sulfonyl]phenol] | 337 nM | 175 nM | 216 to 218 °C |  |  | 1% | 100% |  |  |  |  |  | 
7 | C[C@@H]1c2ccccc2-c2ccc(Cl)cc2N1S(=O)(=O)c1ccc(O)cc1 [Example 122, 4-{[(6R)-3-Chloro-6-methylphenanthridin-5(6)-yl]sulfonyl}phenol] |  |  |  |  |  |  |  |  |  | 14% | 805 nM | 37% | 464 nM
8 | C[C@H]1c2cc(F)ccc2-c2ccccc2N1S(=O)(=O)c1ccc(O)cc1 [Example 33, 4-{[(S)-8-Fluoro-6-methylphenanthridin-5(6H)-yl]sulfonyl}phenol] | 91 nM | 23.4 nM | 193 °C | 33 nM |  | 21% | 108% | 99% |  |  |  |  | 
9 | C[C@H]1c2ccccc2-c2ccc(Cl)cc2N1S(=O)(=O)c1ccc(O)cc1O [Example 125, 4-{[(6S)-3-Chlro-6-methylphenanthridin-5(6H)-yl]sulfonyl}b nzne-1,3-diol] |  |  |  |  |  |  |  |  |  | 22% |  | 94% | 54 nM
10 | CC1c2ccccc2-c2ccc(F)cc2N1S(=O)(=O)c1ccc(O)cc1 (stereo not shown) [Example 105, 4-[(3-Fluoro-6-methylphenanthridin-5(6H)-yl)sulfonyl]phenol] | 32 nM | 92 nM | 162 to 165 °C |  |  | 17% | > 100% |  |  |  |  |  | 

Further lines, with some results ahead:

Row | EC50 (creatine kinase; [1]) | IC50 (IL-6; Homo sapiens, HAECT1, IL-1β) | melting point | IC50 (ER/NF-κB) | EC50 (creatine kinase; Homo sapiens, HAECT1, read-out: Creatin Kinase EC50) | SMILES | Emax (creatine kinase; [2]) | Emax (IL-6; Homo sapiens, HAECT1, IL-1β) | Emax (ER/NF-κB) | Emax at 10 µM (creatine kinase; Homo sapiens, HAECT1, @10 μM, Ad5-wt-ERα infected HAECT-1 cells, read-out: Creatin Kinase Efficacy (%)) | Creatin Kinase Efficacy (%) (creatine kinase; [3]) | EC50 (creatine kinase; Ad5-wt-ERα infected HAECT-1 cells, read-out: Creatin Kinase EC50) | Interleukin-6 Efficacy (%) (IL-6; IL-1β) | IC50 (IL-6; IL-1β)
11 | 661 nM | 40 nM | 166.5 to 167 °C |  |  | C[C@H]1c2cc(F)ccc2-c2ccccc2N1S(=O)(=O)c1ccc(OS(N)(=O)=O)cc1 [Example 126, 4-{[(6S)-8-Fluoro-6-methylphenanthridin-5(6H)-yl]sulfonyl}phenyl sulfamate] | 61% | 99% |  |  |  |  |  | 
12 | 1420 nM | 43 nM | 164 to 167 °C |  |  | CC1c2ccccc2-c2ccc(F)cc2N1S(=O)(=O)c1cccc(O)c1 (stereo not shown) [Example 106, 3-[(3-Fluoro-6-methylphenanthridin-5(6H)-yl)sulfonyl]phenol] | 22% | 104% |  |  |  |  |  | 
13 | 954 nM | 2340 nM | 150 to 152 °C |  |  | C[C@@H]1c2ccccc2-c2ccc(F)cc2N1S(=O)(=O)c1ccc(O)cc1O [Example 110, 4-{[(6R)-3-Fluoro-6-methylphenanthridin-5(6H)-yl]sulfonyl}benzene-1,3-diol] | -7% | 38% |  |  |  |  |  | 
14 | 326 nM | 130 nM | 194 to 196 °C |  |  | CC1c2ccc(F)cc2-c2cc(F)ccc2N1S(=O)(=O)c1ccc(O)cc1 (stereo not shown) [Example 116, 4-[(2,9-Difluoro-6-methylphenanthridin-5(6H)-yl)sulfonyl]phenol] | 23% | 99% |  |  |  |  |  | 
15 |  | 96 nM | 215 °C |  |  | CC1c2ccccc2-c2ccc(Cl)cc2N1S(=O)(=O)c1cccc(O)c1 (stereo not shown) [Example 118, 3-[(3-Chloro-6-methylphenanthridin-5(6H)-yl)sulfonyl]phenol] | -16% | 103% |  |  |  |  |  | 
16 | 110 nM | 1330 nM |  |  |  | C[C@@H]1c2ccccc2-c2ccc(F)cc2N1S(=O)(=O)c1cccc(O)c1 [Example 107, 3-{[(6R)-3-Fluoro-6-methylphenanthridin-5(6H)-yl]sulfonyl}phenol] | 20% | 79% |  |  |  |  |  | 
17 | 107 nM | 30 nM | 204 °C |  |  | CC1c2ccccc2-c2ccc(Cl)cc2N1S(=O)(=O)c1ccc(O)cc1 (stereo not shown) [Example 121, 4-[(3-Chloro-6-methylphenanthridin-5(6H)-yl)sulfonyl]phenol] | 29% | 113% |  |  |  |  |  | 
18 | 152 nM | 43 nM |  |  |  | C[C@H]1c2ccccc2-c2ccc(F)cc2N1S(=O)(=O)c1cccc(O)c1 [Example 108, 3-{[(6S)-3-Fluoro-6-methylphenanthridin-5(6H)-yl]sulfonyl}phenol] | 11% | 92% |  |  |  |  |  | 
19 | 284 nM | 173 nM | 195 to 196 °C |  |  | CC1c2ccccc2-c2cc(F)ccc2N1S(=O)(=O)c1cccc(O)c1 (stereo not shown) [Example 113, 3-[(2-Fluoro-6-methylphenanthridin-5(6H)-yl)sulfonyl]phenol] | 40% | 100% |  |  |  |  |  | 
20 | 624 nM | 224 nM | 178.2 to 182 °C |  |  | C[C@@H]1c2ccccc2-c2ccc(Cl)cc2N1S(=O)(=O)c1ccc(O)cc1O [Example 124, 4-{[(6R)-3-Chloro-6-methylphenanthridin-5(6H)-yl]sulfonyl}benzene-1,3-diol] | 4% | 19% |  |  |  |  |  | 
21 | 85 nM | 47 nM |  |  |  | C[C@H]1c2cc(F)ccc2-c2ccc(F)cc2N1S(=O)(=O)c1ccc(O)cc1O (single isomer, unassigned) [Example 103] | 9% | 141% |  |  |  |  |  | 
22 | 40 nM | 104 nM | 165.5 to 171 °C |  |  | CC1c2ccc(F)cc2-c2cc(F)ccc2N1S(=O)(=O)c1cccc(O)c1 (stereo not shown) [Example 117, 3-[(2,9-Difluoro-6-methylphenanthridin-5(6H)-yl)sulfonyl]phenol] | 8% | 101% |  |  |  |  |  | 
23 | 102 nM | 22 nM | 151 to 153 °C |  |  | C[C@H]1c2ccccc2-c2ccc(F)cc2N1S(=O)(=O)c1ccc(O)cc1O [Example 111, 4-{[(6S)-3-Fluoro-6-methylphenanthridin-5(6H)-yl]sulfonyl}benzene-1,3-diol] | 33% | 114% |  |  |  |  |  | 
